In ChEMBL document CHEMBL5150017, “Mechanism of Action and Structure-Activity Relationship of α-Conotoxin Mr1.1 at the Human α9α10 Nicotinic Acetylcholine Receptor” (J Med Chem, 2022):
Activity calls are given as the source filed them. No cut-off for these calls is given here. Positions of bridges follow the written chain, without caps; N, C: chain ends. Non-standard residues stand in square brackets, D forms with d. Residues, ends and D or L forms follow the SMILES beside them. ξ: configuration not given here. ξDap = NCC(N)C(=O)O

How the values were obtained:
[1] = target: T1, Neuronal acetylcholine receptor; alpha4/beta2 (Homo sapiens) (UniProt P17787+P43681); test: Antagonist activity at human alpha4beta2 nAChR expressed in Xenopus laevis oocytes assessed as inhibition of ACh-induced current amplitude at -80 mV holding potential at 10 uM by two-electrode voltage clamp method; type: cell-based; conditions: Oocyte, filed as antagonist
[2] = target: T1, Neuronal acetylcholine receptor; alpha4/beta2 (Homo sapiens); test: Antagonist activity at human alpha4beta2 nAChR expressed in Xenopus laevis oocytes assessed as inhibition of ACh-induced current amplitude at -80 mV holding potential at 1 uM by two-electrode voltage clamp method; type: cell-based; conditions: Oocyte, filed as antagonist
[3] = target: T2, Neuronal acetylcholine receptor; alpha9/alpha10 (Homo sapiens) (UniProt Q9UGM1+Q9GZZ6); test: Antagonist activity at human alpha9alpha10 nAChR expressed in Xenopus laevis oocytes assessed as inhibition of ACh-induced current amplitude at -80 mV holding potential at 10 uM by two-electrode voltage clamp method; type: cell-based; conditions: Oocyte, filed as antagonist
[4] = target: T3, Neuronal acetylcholine receptor subunit alpha-7 (Homo sapiens, UniProt P36544); test: Antagonist activity at human alpha7 nAChR expressed in Xenopus laevis oocytes assessed as inhibition of ACh-induced current amplitude at -80 mV holding potential at 1 uM by two-electrode voltage clamp method; type: cell-based; conditions: Oocyte
T3 sequence (P36544 whole entry): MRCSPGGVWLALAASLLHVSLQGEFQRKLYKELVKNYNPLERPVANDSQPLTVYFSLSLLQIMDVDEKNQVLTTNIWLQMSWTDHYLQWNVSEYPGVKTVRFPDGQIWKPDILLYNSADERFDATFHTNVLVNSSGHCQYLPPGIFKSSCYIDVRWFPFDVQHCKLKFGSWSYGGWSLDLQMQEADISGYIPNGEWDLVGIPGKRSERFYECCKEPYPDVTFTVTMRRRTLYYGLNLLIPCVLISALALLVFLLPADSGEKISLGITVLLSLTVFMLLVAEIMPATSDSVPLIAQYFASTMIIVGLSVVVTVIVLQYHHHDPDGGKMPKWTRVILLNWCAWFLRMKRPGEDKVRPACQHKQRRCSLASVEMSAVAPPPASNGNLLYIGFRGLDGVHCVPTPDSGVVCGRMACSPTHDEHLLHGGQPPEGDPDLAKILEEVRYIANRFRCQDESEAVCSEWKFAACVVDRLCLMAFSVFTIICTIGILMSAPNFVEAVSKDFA

[5] = target: T4, Neuronal acetylcholine receptor; alpha3/beta2 (Homo sapiens, UniProt P17787+P32297); test: Antagonist activity at human alpha3beta2 nAChR expressed in Xenopus laevis oocytes assessed as inhibition of ACh-induced current amplitude at -80 mV holding potential in presence of BAPTA-AM at 10 uM by two-electrode voltage clamp method; type: cell-based; conditions: Oocyte, filed as antagonist
T4 sequence (P17787 whole entry): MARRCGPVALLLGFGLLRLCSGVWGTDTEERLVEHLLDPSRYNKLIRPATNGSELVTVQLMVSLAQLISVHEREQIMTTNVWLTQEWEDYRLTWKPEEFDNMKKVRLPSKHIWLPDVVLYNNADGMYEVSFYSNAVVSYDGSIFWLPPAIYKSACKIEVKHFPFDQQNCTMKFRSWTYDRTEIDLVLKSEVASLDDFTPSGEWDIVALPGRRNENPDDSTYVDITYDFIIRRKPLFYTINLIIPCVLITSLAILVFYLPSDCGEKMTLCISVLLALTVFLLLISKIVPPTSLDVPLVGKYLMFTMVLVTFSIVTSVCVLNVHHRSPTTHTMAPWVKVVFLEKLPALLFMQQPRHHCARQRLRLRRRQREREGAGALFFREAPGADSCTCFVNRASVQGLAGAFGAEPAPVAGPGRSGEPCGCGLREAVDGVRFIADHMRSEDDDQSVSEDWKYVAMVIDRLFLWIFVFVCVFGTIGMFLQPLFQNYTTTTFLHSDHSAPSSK
T4 sequence (P32297 whole entry): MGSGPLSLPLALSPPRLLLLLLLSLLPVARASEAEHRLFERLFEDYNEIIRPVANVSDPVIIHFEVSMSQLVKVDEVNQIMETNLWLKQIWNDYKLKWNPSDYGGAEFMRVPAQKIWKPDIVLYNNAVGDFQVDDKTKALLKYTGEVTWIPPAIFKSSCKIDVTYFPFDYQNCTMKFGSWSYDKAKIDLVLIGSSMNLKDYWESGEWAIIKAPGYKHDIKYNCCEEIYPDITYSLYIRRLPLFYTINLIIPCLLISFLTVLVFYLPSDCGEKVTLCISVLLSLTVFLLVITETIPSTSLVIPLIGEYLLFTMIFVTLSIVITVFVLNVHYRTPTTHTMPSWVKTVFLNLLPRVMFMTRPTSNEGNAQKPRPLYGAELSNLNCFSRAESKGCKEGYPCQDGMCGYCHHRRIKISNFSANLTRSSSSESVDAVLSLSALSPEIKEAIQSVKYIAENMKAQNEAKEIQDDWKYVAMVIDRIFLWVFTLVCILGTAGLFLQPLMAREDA

[6] = target: T2, Neuronal acetylcholine receptor; alpha9/alpha10 (Homo sapiens); test: Antagonist activity at human alpha9alpha10 nAChR expressed in Xenopus laevis oocytes assessed as inhibition of ACh-induced current amplitude at -80 mV holding potential at 1 uM by two-electrode voltage clamp method; type: cell-based; conditions: Oocyte
[7] = target: T5, Neuronal acetylcholine receptor; alpha3/beta4 (Homo sapiens) (UniProt P30926+P32297); test: Antagonist activity at human alpha3beta4 nAChR expressed in Xenopus laevis oocytes assessed as inhibition of ACh-induced current amplitude at -80 mV holding potential in presence of BAPTA-AM at 10 uM by two-electrode voltage clamp method; type: cell-based; conditions: Oocyte, filed as antagonist
[8] = target: T4, Neuronal acetylcholine receptor; alpha3/beta2; test: Antagonist activity at human alpha3beta2 nAChR expressed in Xenopus laevis oocytes assessed as inhibition of ACh-induced current amplitude at -80 mV holding potential at 10 uM by two-electrode voltage clamp method; type: cell-based; conditions: Oocyte, filed as antagonist
[9] = target: Neuronal acetylcholine receptor subunit alpha-7 (Rattus norvegicus) (UniProt Q05941); test: Inhibition of rat neuronal alpha7 nAChR expressed in Xenopus laevis oocytes assessed as inhibition of ACh-induced current amplitude at 1 uM by two-electrode voltage clamp method; type: cell-based; conditions: Oocyte, filed as antagonist
Chain of Neuronal acetylcholine receptor subunit alpha-7 (Rattus norvegicus) (Q05941 whole entry): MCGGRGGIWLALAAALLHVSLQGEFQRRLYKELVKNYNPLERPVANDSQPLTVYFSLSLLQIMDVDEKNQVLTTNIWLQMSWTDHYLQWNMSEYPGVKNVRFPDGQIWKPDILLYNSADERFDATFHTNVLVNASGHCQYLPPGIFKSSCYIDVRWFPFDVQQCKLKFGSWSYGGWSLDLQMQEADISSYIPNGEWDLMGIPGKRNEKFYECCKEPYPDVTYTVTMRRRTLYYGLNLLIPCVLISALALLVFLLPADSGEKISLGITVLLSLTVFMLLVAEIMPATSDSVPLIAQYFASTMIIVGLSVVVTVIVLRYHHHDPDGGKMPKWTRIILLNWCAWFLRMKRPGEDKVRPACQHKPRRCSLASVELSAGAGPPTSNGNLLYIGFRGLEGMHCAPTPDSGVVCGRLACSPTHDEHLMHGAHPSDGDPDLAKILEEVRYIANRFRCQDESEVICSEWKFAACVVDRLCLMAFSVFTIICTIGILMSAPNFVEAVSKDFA

[10] = target: T5, Neuronal acetylcholine receptor; alpha3/beta4 (Homo sapiens); test: Antagonist activity at human alpha3beta4 nAChR expressed in Xenopus laevis oocytes assessed as inhibition of ACh-induced current amplitude at -80 mV holding potential at 10 uM by two-electrode voltage clamp method; type: cell-based; conditions: Oocyte, filed as antagonist
[11] = target: T4, Neuronal acetylcholine receptor; alpha3/beta2; test: Antagonist activity at human alpha3beta2 nAChR expressed in Xenopus laevis oocytes assessed as inhibition of ACh-induced current amplitude at -80 mV holding potential at 1 uM by two-electrode voltage clamp method; type: cell-based; conditions: Oocyte
Oocyte = test: Antagonist activity at rat alpha9alpha10 nAChR expressed in Xenopus laevis oocytes assessed as inhibition of ACh-induced current amplitude at 10 uM by two-electrode voltage clamp method; type: cell-based; conditions: filed as antagonist
[12] = target: Neuronal acetylcholine receptor; alpha9/alpha10 (Homo sapiens, UniProt Q9GZZ6+Q9UGM1); test: Antagonist activity at human alpha9alpha10 nAChR expressed in Xenopus laevis oocytes assessed as inhibition of ACh-induced current amplitude at -80 mV holding potential by two-electrode voltage clamp method; type: cell-based, Oocyte
Chain of Neuronal acetylcholine receptor; alpha9/alpha10 (Q9UGM1 whole entry): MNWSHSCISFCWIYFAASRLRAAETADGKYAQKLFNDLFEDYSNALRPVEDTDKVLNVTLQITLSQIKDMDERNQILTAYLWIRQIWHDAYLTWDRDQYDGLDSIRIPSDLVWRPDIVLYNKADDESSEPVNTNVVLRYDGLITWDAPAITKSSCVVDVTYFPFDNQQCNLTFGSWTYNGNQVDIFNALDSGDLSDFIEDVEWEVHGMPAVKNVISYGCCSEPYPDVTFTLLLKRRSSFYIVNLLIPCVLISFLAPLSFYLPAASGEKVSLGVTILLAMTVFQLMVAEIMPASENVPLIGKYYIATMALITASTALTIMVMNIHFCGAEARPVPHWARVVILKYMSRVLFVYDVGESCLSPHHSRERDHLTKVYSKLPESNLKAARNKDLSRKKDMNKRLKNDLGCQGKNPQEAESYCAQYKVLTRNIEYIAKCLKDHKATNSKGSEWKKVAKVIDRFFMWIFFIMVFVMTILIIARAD
Chain of Neuronal acetylcholine receptor; alpha9/alpha10 (Q9GZZ6 whole entry): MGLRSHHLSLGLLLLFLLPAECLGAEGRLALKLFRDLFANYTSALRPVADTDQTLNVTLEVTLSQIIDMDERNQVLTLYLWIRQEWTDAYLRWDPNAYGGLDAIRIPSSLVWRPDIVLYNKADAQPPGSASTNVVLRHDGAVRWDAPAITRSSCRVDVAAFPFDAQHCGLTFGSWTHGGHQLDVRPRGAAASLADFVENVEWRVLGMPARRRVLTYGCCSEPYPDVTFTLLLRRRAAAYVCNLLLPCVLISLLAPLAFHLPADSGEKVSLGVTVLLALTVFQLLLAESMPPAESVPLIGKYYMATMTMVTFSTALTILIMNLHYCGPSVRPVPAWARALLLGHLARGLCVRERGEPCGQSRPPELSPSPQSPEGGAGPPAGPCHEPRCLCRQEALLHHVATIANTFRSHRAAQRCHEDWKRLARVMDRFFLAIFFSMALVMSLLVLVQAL

[13] = target: T4, Neuronal acetylcholine receptor; alpha3/beta2; test: Antagonist activity at human alpha3beta2 nAChR expressed in Xenopus laevis oocytes assessed as inhibition of ACh-induced current amplitude at -80 mV holding potential by two-electrode voltage clamp method; type: cell-based, Oocyte
[14] = target: T3, Neuronal acetylcholine receptor subunit alpha-7; test: Antagonist activity at human alpha7 nAChR expressed in Xenopus laevis oocytes assessed as inhibition of ACh-induced current amplitude at -80 mV holding potential at 10 uM by two-electrode voltage clamp method; type: cell-based; conditions: Oocyte, filed as antagonist
[15] = target: T5, Neuronal acetylcholine receptor; alpha3/beta4 (Homo sapiens); test: Antagonist activity at human alpha3beta4 nAChR expressed in Xenopus laevis oocytes assessed as inhibition of ACh-induced current amplitude at -80 mV holding potential at 1 uM by two-electrode voltage clamp method; type: cell-based; conditions: Oocyte, filed as antagonist
[16] = Antagonist activity at rat alpha9alpha10 nAChR expressed in Xenopus laevis oocytes assessed as inhibition of ACh-induced current amplitude by two-electrode voltage clamp method; type: cell-based; conditions: Oocyte
[17] = target: T2, Neuronal acetylcholine receptor; alpha9/alpha10 (Homo sapiens); test: Antagonist activity at human alpha9alpha10 nAChR expressed in Xenopus laevis oocytes assessed as inhibition of ACh-induced current amplitude at -80 mV holding potential at 100 nM by two-electrode voltage clamp method; type: cell-based; conditions: Oocyte
Mus musculus [18] = test: Analgesic activity in chronic constriction injury-induced mechanical pain mouse model assessed as increase in paw withdrawal latency at 25 ug/kg measured after 24 hrs; type: functional, organism-based; conditions: dose 25.0 µg/kg
[19] = target: T1, Neuronal acetylcholine receptor; alpha4/beta2 (Homo sapiens); test: Antagonist activity at human alpha4beta2 nAChR expressed in Xenopus laevis oocytes assessed as inhibition of ACh-induced current amplitude at -80 mV holding potential in presence of BAPTA-AM at 100 nM by two-electrode voltage clamp method; type: cell-based; conditions: Oocyte
[20] = target: T3, Neuronal acetylcholine receptor subunit alpha-7; test: Antagonist activity at human alpha7 nAChR expressed in Xenopus laevis oocytes assessed as inhibition of ACh-induced current amplitude at -80 mV holding potential in presence of BAPTA-AM by two-electrode voltage clamp method; type: cell-based, Oocyte
[21] = target: T5, Neuronal acetylcholine receptor; alpha3/beta4 (Homo sapiens); test: Antagonist activity at human alpha3beta4 nAChR expressed in Xenopus laevis oocytes assessed as inhibition of ACh-induced current amplitude at -80 mV holding potential at 100 nM by two-electrode voltage clamp method; type: cell-based; conditions: Oocyte
Mus musculus [22] = test: Analgesic activity in chronic constriction injury-induced mechanical pain mouse model assessed as increase in paw withdrawal latency at 2.5 ug/kg measured after 12 hrs; type: functional, organism-based; conditions: dose 2.5 µg/kg
Rattus norvegicus = species on record: Rattus norvegicus; test: Analgesic activity in chronic constriction injury-induced mechanical pain rat model assessed as increase in paw withdrawal latency measured after 24 hrs; type: functional, organism-based; conditions: DDE = dose-dependent effect
[23] = target: T4, Neuronal acetylcholine receptor; alpha3/beta2; test: Antagonist activity at human alpha3beta2 nAChR expressed in Xenopus laevis oocytes assessed as inhibition of ACh-induced current amplitude at -80 mV holding potential at 100 nM by two-electrode voltage clamp method; type: cell-based; conditions: Oocyte, filed as antagonist
[24] = target: T3, Neuronal acetylcholine receptor subunit alpha-7; test: Antagonist activity at human alpha7 nAChR expressed in Xenopus laevis oocytes assessed as inhibition of ACh-induced current amplitude at -80 mV holding potential at 100 nM by two-electrode voltage clamp method; type: cell-based; conditions: Oocyte, filed as antagonist
Mus musculus [25] = test: Analgesic activity in chronic constriction injury-induced mechanical pain mouse model assessed as increase in paw withdrawal latency at 0.5 ug/kg measured after 12 hrs; type: functional, organism-based; conditions: dose 5.0 µg/kg
[26] = target: T3, Neuronal acetylcholine receptor subunit alpha-7; test: Antagonist activity at human alpha7 nAChR expressed in Xenopus laevis oocytes assessed as inhibition of ACh-induced current amplitude at -80 mV holding potential by two-electrode voltage clamp method; type: cell-based, Oocyte
[27] = Toxicity in mouse assessed as abnormal motor behavior; conditions: in vivo

SMILES: CC[C@H](C)[C@@H]1NC(=O)[C@H](CC(=O)O)NC(=O)[C@@H]2CCCN2C(=O)[C@H](CC(N)=O)NC(=O)[C@H](CC(N)=O)NC(=O)[C@H](C(C)C)NC(=O)[C@H](CO)NC(=O)[C@@H]2CSSC[C@H](NC(=O)CN)C(=O)N[C@@H](CSSC[C@@H](C(N)=O)NC1=O)C(=O)N[C@@H](CO)C(=O)N[C@@H](Cc1cnc[nH]1)C(=O)N1CCC[C@H]1C(=O)N[C@@H](C)C(=O)N2 (H-GCCSHPACSVNNPDIC-NH2; disulfide 2-8, 3-16)
- inhibition [1]: 40%
- inhibition [2]: Active
- inhibition [3]: > 90%
- inhibition [4]: 25%
- inhibition [5]: 50%
- inhibition ([6]; filed as antagonist): 95%
- inhibition [7]: 50%
- inhibition [8]: > 90%
- inhibition [9]: 65%
- inhibition [10]: > 90%
- inhibition [11]: 90%
- inhibition (Oocyte): 100%
- IC50 [12]: 92 nM
- IC50 [13]: 219 nM
- inhibition [14]: 80%
- inhibition [15]: 60%
- IC50 [16]: 8.3 nM

SMILES: CC[C@H](C)[C@@H]1NC(=O)[C@H](CCC(=O)O)NC(=O)[C@@H]2CCCN2C(=O)[C@H](CC(N)=O)NC(=O)[C@H](CC(N)=O)NC(=O)[C@H](C(C)C)NC(=O)[C@H](CO)NC(=O)[C@@H]2CSSC[C@H](NC(=O)CN)C(=O)N[C@@H](CSSC[C@@H](C(N)=O)NC1=O)C(=O)N[C@@H](CO)C(=O)N[C@@H](Cc1cnc[nH]1)C(=O)N1CCC[C@H]1C(=O)N[C@@H](C)C(=O)N2 (H-GCCSHPACSVNNPEIC-NH2; disulfide 2-8, 3-16)
- inhibition [6]: 20%
- inhibition ([6]; filed as antagonist): 40%

SMILES: CC[C@H](C)[C@@H]1NC(=O)[C@H](CC(=O)O)NC(=O)[C@@H]2CCCN2C(=O)[C@H](CC(N)=O)NC(=O)[C@H](CC(N)=O)NC(=O)[C@H](Cc2ccc(O)cc2)NC(=O)[C@H](CO)NC(=O)[C@@H]2CSSC[C@H](NC(=O)CN)C(=O)N[C@@H](CSSC[C@@H](C(N)=O)NC1=O)C(=O)N[C@@H](CO)C(=O)N[C@@H](Cc1cnc[nH]1)C(=O)N1CCC[C@H]1C(=O)N[C@@H](C)C(=O)N2 (H-GCCSHPACSYNNPDIC-NH2; disulfide 2-8, 3-16)
- inhibition [6]: 20%
- inhibition [17]: 25%

SMILES: CC[C@H](C)[C@@H]1NC(=O)[C@H](CC(=O)O)NC(=O)[C@@H]2CCCN2C(=O)[C@H](CC(N)=O)NC(=O)[C@H](CC(N)=O)NC(=O)[C@H](C(C)C)NC(=O)[C@H](CO)NC(=O)[C@@H]2CSSC[C@H](NC(=O)CN)C(=O)N[C@@H](CSSC[C@@H](C(N)=O)NC1=O)C(=O)NC(CN)C(=O)N[C@@H](Cc1cnc[nH]1)C(=O)N1CCC[C@H]1C(=O)N[C@@H](C)C(=O)N2 (stereo partly drawn) (H-GCC[ξDap]HPACSVNNPDIC-NH2; disulfide 2-8, 3-16)
- Activity (Mus musculus [18]): Active
- inhibition [19]: 5%
- IC50 [20]: 265 nM
- inhibition [21]: 5%
- Activity (Mus musculus [22]): Active
- Activity (Rattus norvegicus): Dde
- inhibition [23]: 85%
- inhibition ([11]; filed as antagonist): > 95%
- inhibition [24]: 90%
- IC50 [12]: 4 nM
- Activity (Mus musculus [25]): Active
- inhibition ([17]; filed as antagonist): > 85%
- IC50 [13]: 20.6 nM
- IC50 [16]: 1.7 nM
- IC50 [26]: 259 nM
- Activity [27]: Non-Toxic

SMILES: CC[C@H](C)[C@@H]1NC(=O)[C@H](CC(=O)O)NC(=O)[C@@H]2CCCN2C(=O)[C@H](CC(N)=O)NC(=O)[C@H](CC(N)=O)NC(=O)[C@H](C(C)C)NC(=O)C(CN)NC(=O)[C@@H]2CSSC[C@H](NC(=O)CN)C(=O)N[C@@H](CSSC[C@@H](C(N)=O)NC1=O)C(=O)NC(CN)C(=O)N[C@@H](Cc1cnc[nH]1)C(=O)N1CCC[C@H]1C(=O)N[C@@H](C)C(=O)N2 (stereo partly drawn) (H-GCC[ξDap]HPAC[ξDap]VNNPDIC-NH2; disulfide 2-8, 3-16)
- inhibition ([17]; filed as antagonist): > 95%
